This data set has as its system CCRIS mutagenicity, Ames/micronucleus/aberration tests. The data set can be described thus: CCRIS mutagenicity studies.
Setting [1] is: Test System: AMES SALMONELLA TYPHIMURIUM, Strain/Indicator: TA98, Metabolic Activation: NONE, Method: PREINCUBATION

The values that follow come from PubChem BioAssay AID1259407 (Chemical Carcinogenesis Research Information System (CCRIS), 2018).

Calls of active or inactive are those of the source. The rule behind the calls is not given here.

As for `CC1(C)C(C(=O)OC(C#N)c2cccc(Oc3ccccc3)c2)C1(C)C` (stereo not given), the mutagenic call is, setting by setting: (End Point: In vitro chromasomal aberrations, Test System: Chinese hamster ovary (CHO-K1) cells, Metabolic Activation: None) “inactive; negative”; (End Point: In vitro chromasomal aberrations, Test System: Chinese hamster ovary (CHO-K1) cells, Metabolic Activation: Rat, liver, S-9, PCB) “inactive; negative”; (Test System: AMES SALMONELLA TYPHIMURIUM, Strain/Indicator: TA98, Metabolic Activation: NONE, Method: STANDARD PLATE) “inactive; negative”; (Test System: AMES SALMONELLA TYPHIMURIUM, Strain/Indicator: TA98, Metabolic Activation: S-9, Method: STANDARD PLATE) “inactive; negative”; (Test System: AMES SALMONELLA TYPHIMURIUM, Strain/Indicator: TA100, Metabolic Activation: NONE, Method: STANDARD PLATE) “inactive; negative”; (Test System: AMES SALMONELLA TYPHIMURIUM, Strain/Indicator: TA100, Metabolic Activation: S-9, Method: STANDARD PLATE) “inactive; negative”. Further, the mutagenic call by setting is: (Test System: AMES SALMONELLA TYPHIMURIUM, Strain/Indicator: TA1535, Metabolic Activation: NONE, Method: STANDARD PLATE) “inactive; negative”; (Test System: AMES SALMONELLA TYPHIMURIUM, Strain/Indicator: TA1535, Metabolic Activation: S-9, Method: STANDARD PLATE) “inactive; negative”; (Test System: AMES SALMONELLA TYPHIMURIUM, Strain/Indicator: TA1537, Metabolic Activation: NONE, Method: STANDARD PLATE) “inactive; negative”; (Test System: AMES SALMONELLA TYPHIMURIUM, Strain/Indicator: TA1537, Metabolic Activation: S-9, Method: STANDARD PLATE) “inactive; negative”; (Test System: Ames Salmonella typhimurium, Strain/Indicator: TA98, Metabolic Activation: Rat, Liver, S-9, Kanechlor-400, Method: Preincubation) “inactive; negative”; (Test System: Ames Salmonella typhimurium, Strain/Indicator: TA100, Metabolic Activation: Rat, Liver, S-9, Kanechlor-400, Method: Preincubation) “inactive; negative”. Further, the mutagenic call runs as follows: (Test System: Ames Salmonella typhimurium, Strain/Indicator: TA1535, Metabolic Activation: Rat, Liver, S-9, Kanechlor-400, Method: Preincubation) “inactive; negative”; (Test System: Ames Salmonella typhimurium, Strain/Indicator: TA1537, Metabolic Activation: Rat, Liver, S-9, Kanechlor-400, Method: Preincubation) “inactive; negative”; (Test System: Ames Salmonella typhimurium, Strain/Indicator: TA1538, Metabolic Activation: Rat, Liver, S-9, Kanechlor-400, Method: Preincubation) “inactive; negative”; (Test System: E. coli, Strain/Indicator: WP2uvrA, Metabolic Activation: Rat, Liver, S-9, Kanechlor-400, Method: Preincubation) “inactive; negative”.
Consider `O=S(=O)(O)OCc1c2ccccc2c(CO)c2c1ccc1ccccc12`, for which the mutagenic call under setting [1] is “active; positive”.
With `c1ccc(N=NNc2ccccc2)cc1`, the mutagenic call (End Point: IN VIVO MICRONUCLEUS, Test System: BONE MARROW, Species: MOUSE, Strain/Sex: B6C3F1/MALE, Route: GAVAGE) is “active; positive”; the mutagenic call (Test System: AMES SALMONELLA TYPHIMURIUM, Strain/Indicator: TA98, Metabolic Activation: HAMSTER, LIVER, S-9, AROCLOR 1254 (10%), Method: PREINCUBATION) was “active; positive”; the mutagenic call under setting [1] is “inactive; negative”; the mutagenic call (Test System: AMES SALMONELLA TYPHIMURIUM, Strain/Indicator: TA98, Metabolic Activation: RAT, LIVER, S-9, AROCLOR 1254 (10%), Method: PREINCUBATION) is “active; positive”; the mutagenic call (Test System: AMES SALMONELLA TYPHIMURIUM, Strain/Indicator: TA100, Metabolic Activation: HAMSTER, LIVER, S-9, AROCLOR 1254 (10%), Method: PREINCUBATION) is “active; positive”; the mutagenic call (Test System: AMES SALMONELLA TYPHIMURIUM, Strain/Indicator: TA100, Metabolic Activation: NONE, Method: PREINCUBATION) was “inactive; negative”. Besides, the mutagenic call (Test System: AMES SALMONELLA TYPHIMURIUM, Strain/Indicator: TA100, Metabolic Activation: RAT, LIVER, S-9, AROCLOR 1254 (10%), Method: PREINCUBATION) is “active; positive”; the mutagenic call (Test System: AMES SALMONELLA TYPHIMURIUM, Strain/Indicator: TA1535, Metabolic Activation: HAMSTER, LIVER, S-9, AROCLOR 1254 (10%), Method: PREINCUBATION) is “inactive; negative”; the mutagenic call (Test System: AMES SALMONELLA TYPHIMURIUM, Strain/Indicator: TA1535, Metabolic Activation: NONE, Method: PREINCUBATION) was “inactive; negative”; the mutagenic call (Test System: AMES SALMONELLA TYPHIMURIUM, Strain/Indicator: TA1535, Metabolic Activation: RAT, LIVER, S-9, AROCLOR 1254 (10%), Method: PREINCUBATION) is “inactive; negative”; the mutagenic call (Test System: AMES SALMONELLA TYPHIMURIUM, Strain/Indicator: TA1537, Metabolic Activation: HAMSTER, LIVER, S-9, AROCLOR 1254 (10%), Method: PREINCUBATION) is “active; positive”; the mutagenic call (Test System: AMES SALMONELLA TYPHIMURIUM, Strain/Indicator: TA1537, Metabolic Activation: NONE, Method: PREINCUBATION) was “inactive; negative”. Where the note is “Test System: AMES SALMONELLA TYPHIMURIUM, Strain/Indicator: TA1537, Metabolic Activation: RAT, LIVER, S-9, AROCLOR 1254 (10%), Method: PREINCUBATION”, the mutagenic call is “active; positive”.
